In BindingDB's records for doi:10.1016/0960-894X(96)00356-3 (1996) one finds Ki data, which are given here for 6 compounds.

This test concerns the target Tissue alpha-L-fucosidase (Bos taurus). As to the kind of experiment: Compound was tested for the inhibitory activity against alpha-L-fucosidase from bovine epididymis.
Compound `CC1SC(Oc2ccc([N+](=O)[O-])cc2)C(O)C(O)C1O` [(3R,4S,5S)-2-Methyl-6-(4-nitro-phenoxy)-tetrahydro-thiopyran-3,4,5-triol] gave a Ki of 118 µM.
With `CSC1SC(C)C(O)C(O)C1O` [(3R,4S,5S)-2-Methyl-6-methylsulfanyl-tetrahydro-thiopyran-3,4,5-triol] the figure was 2300 µM; with `COC1SC(C)C(O)C(O)C1O` [(3S,4S,5R)-2-Methoxy-6-methyl-tetrahydro-thiopyran-3,4,5-triol], 690 µM.
With `CC1SC(Sc2ccc([N+](=O)[O-])cc2)C(O)[C@H](O)C1O` (stereo partly drawn) [(R)-2-Methyl-6-(4-nitro-phenylsulfanyl)-tetrahydro-thiopyran-3,4,5-triol] the figure was 3.3 µM; with `CC1SC(OP(=O)(O)O)C(O)C(O)C1O` [Sodium; Phosphoric acid mono-((3S,4S,5R)-3,4,5-trihydroxy-6-methyl-tetrahydro-thiopyran-2-yl) ester], 406 µM.
With `CC1SC(OP(=O)(O)OCc2ccccc2)C(O)C(O)C1O` (stereo unspecified) [Sodium; benzyl 3,4,5-trihydroxy-6-methyltetrahydro-2H-thiopyran-2-yl hydrogen phosphate] the figure was 33 µM.

Broadly, the Ki is a dissociation constant, usually derived from enzyme kinetics or from competition with a known ligand. A lower Ki goes with higher affinity.
